Where two headings read alike, the source gives them in different places.
How the values were obtained:
[1] = logD determined by multi-parameter QSRR models from IS-RPLC logkw
Method: Multi-parameter QSRR models including logD, logkw, ne, A, and B were established using the multiple linear regression (MLR) method. In the process of linear fitting, ne, A, B, and their different combinations were introduced to optimize the models.
The logD values reported in the literature for these four compounds were calculated using Equation (S3) with corresponding pKa, logP, and pH values.
(§1) At each pH, the retention time (tR) of every analyte was determined for at least four different volume fractions (φ) of methanol. All the tR values of the solutes were obtained by averaging the results of at least three independent injections. The tR value was corrected using dual-point retention time correction (DP-RTC). For a detailed description of the process, refer to our previous work. For the different hydrophobicities of the studied compounds, benzene, toluene, and benzyl alcohol were used as anchor compounds in the DP-RTC method. The dead time t0 was determined using uracil. For each solute, the logarithm of k was plotted against φ, and logkw was obtained using the Equation (S1). The logD values of the model compounds were calculated using Equation (S3), and the logD–logkw models were established with Equation (S4). The statistical analysis for the regression model was accomplished using Origin 9.4.

[2] = IS-RPLC retention on silica-based C18 column, logkw by linear solvent strength model; assay type: physicochemical
Method: (§2) The retention behavior of the 42 basic compounds (Table 1) were investigated at different ratios of methanol (φ = 0.7–0.1, the interval was 0.1 or 0.05 based on the retention of the investigated solutes). The logk values were plotted versus φ for each solute at pH 7.0, pH 8.0, pH 9.0, and pH 10.0. […] The logD values of the model compounds and verification compounds calculated using Equation (S3) based on the logP and pH values are also listed in Table 1.
The column temperature was set at 30 °C. Methanol and 20 mmol/L ammonium phosphate buffer (pH = 7.0, 8.0, 9.0, 10.0) was used as the mobile phase to perform isocratic elution. The injection volume was 10 µL and the detection wavelength for each eluted compound was set at its optimum absorption wavelength.
as §1, with “9.4. […]” for “9.4.”
(§3) Where, k is the capacity factor, φ is the volume fraction of organic modifier in the mobile phase, and S is the constant obtained by linear regression in the equations. […]
The Eqs. (S1) and (S2) are the basis for the determination of logP by revered- phase liquid chromatography (RPLC) method. For dissociative solutes, it has been confirmed by many studies that the logD calibrated from logP has a better linear correlation with logkw than logP. […]

[3] = design: method as in UFZ-LSER database; conditions: hydrogen bonding parameter B; ref UFZ-LSER database; cited from earlier work
[4] = Text: as §2
as §1, with “9.4. […]” for “9.4.”
as §3
and logkw, which is usually called Collander equation [25 ]. lo g lo g wPm k n= + (S2)
Where, m and n are constants obtained by linear regression.
The Eqs. (S1) and (S2) are the basis for the determination of logP by revered- phase liquid chromatography (RPLC) method. For dissociative solutes, it has been confirmed by many studies that the logD calibrated from logP has a better linear correlation with logkw than logP.
For basic compounds, the logD value can be calibrated from Eq. (S3), and the Collander equation can be rewritten into Eq. (S4). log log( )D − −+ −+= + ++P […]
lo g ' lo g 'Dm k n= +w (S4)
Where, pKa1, pKa2 , … p Kan are the dissociation constants of basic compounds of corresponding acids in the mobile phase, pH is the pH value of mobile phase, m′ and n′ are fitting parameters. Han et al. pointed out that although mobile phase pH and pKa of solutes will change along with the varied organic modifier fraction, the difference between a couple of relevant pH and pKa is a constant. Therefore, the used pH and pKa in this paper were both the values obtained at 100% aqueous phase. […]

[5] = IS-RPLC retention (logkw), pH 7
[6] = IS-RPLC retention (logkw), pH 8
[7] = IS-RPLC retention (logkw), pH 9
[8] = IS-RPLC retention (logkw), pH 10
[9] = pH 7.0, methanol/20 mmol/L ammonium phosphate buffer, Welch Xtimate C18, 30 °C, 100% aqueous extrapolation
[10] = pH 8.0, methanol/20 mmol/L ammonium phosphate buffer, Welch Xtimate C18, 30 °C, 100% aqueous extrapolation
[11] = pH 9.0, methanol/20 mmol/L ammonium phosphate buffer, Welch Xtimate C18, 30 °C, 100% aqueous extrapolation
[12] = pH 10.0, methanol/20 mmol/L ammonium phosphate buffer, Welch Xtimate C18, 30 °C, 100% aqueous extrapolation
[13] = pH 7.0, calculated with literature logP, pKa and pH, Equation (S3)
[14] = pH 8.0, calculated with literature logP, pKa and pH, Equation (S3)
[15] = pH 9.0, calculated with literature logP, pKa and pH, Equation (S3)
[16] = pH 10.0, calculated with literature logP, pKa and pH, Equation (S3)

SMILES	logkw-pH 7.0 [2, 9]	logkw-pH 8.0 [2, 10]	logkw-pH 9.0 [2, 11]	logkw-pH 10.0 [2, 12]	B [3]	chromatographic logD ([1]; pH 7)	chromatographic logD ([1]; pH 8)	chromatographic logD ([1]; pH 9)	chromatographic logD ([1]; pH 10)	also measured
O=C(n1ccnc1)n1ccnc1 [1,1’-Carbonyldiimidazole]	−0.39	−0.38	−0.27	−0.15	1.47					chromatographic logD [1, 5]: -0.52; chromatographic logD [1, 6]: -0.46; chromatographic logD [1, 7]: -0.84; chromatographic logD [1, 8]: -0.89
Nc1ccccc1N [1,2-diaminobenzene]					1.26	0.38	0.38	0.07	0.28	logkw-pH 7.0 ([2]; pH 7): 0.50; logkw-pH 8.0 ([2]; pH 8): 0.49; logkw-pH 9.0 ([2]; pH 9): 0.29; logkw-pH 10.0 ([2]; pH 10): 0.60
Nc1cccc(N)c1 [1,3-diaminobenzene]	0.17	0.07	−0.16	0.21	1.28	0.03	-0.02	-0.41	-0.15	
Nc1ccc([N+](=O)[O-])cc1[N+](=O)[O-] [2,4-Dinitroaniline]	1.80	1.86	1.78	1.92	1.44	1.71	1.69	1.58	1.64	
Nc1ncncn1 [2-Amino-1,3,5-triazine]	1.36	1.36	1.38	1.43	1.00					chromatographic logD [1, 5]: 1.27; chromatographic logD [1, 6]: 1.22; chromatographic logD [1, 7]: 0.95; chromatographic logD [1, 8]: 0.88
COc1nc(C)nc(N)n1 [2-Amino-4-methyl-6-methoxy-s-triazine]	1.36	1.36	1.38	1.43	1.07					chromatographic logD [1, 5]: 1.28; chromatographic logD [1, 6]: 1.22; chromatographic logD [1, 7]: 0.94; chromatographic logD [1, 8]: 0.86
Nc1c(Cl)cc([N+](=O)[O-])cc1[N+](=O)[O-] [2-Chloro-4,6-dinitroaniline]	2.19	2.25	2.26	2.30	1.56	2.11	2.07	1.99	1.97	
Nc1ccc([N+](=O)[O-])cc1Cl [2-Chloro-4-nitroaniline]					1.41	1.99	1.96	1.93	1.92	logkw-pH 7.0 ([2]; pH 7): 2.07; logkw-pH 8.0 ([2]; pH 8): 2.13; logkw-pH 9.0 ([2]; pH 9): 2.14; logkw-pH 10.0 ([2]; pH 10): 2.18
Cc1cc([N+](=O)[O-])ccc1N [2-Methyl-4-nitroaniline]	1.76	1.79	1.46	1.84	1.22	1.67	1.63	1.31	1.6	
Cc1ccccn1 [2-Picoline]	1.31	1.32	1.34	1.36	0.60					logDpH 7.0 ([4]; pH 7): 1.05; logDpH 8.0 ([4]; pH 8): 1.09; logDpH 9.0 ([4]; pH 9): 1.09; logDpH 10.0 ([4]; pH 10): 1.09
Nc1ccc(F)cc1 [4-Fluoroaniline]	1.13	1.12	1.14	1.18	1.76					logDpH 7.0 [4, 13]: 1.15; logDpH 8.0 [4, 14]: 1.15; logDpH 9.0 [4, 15]: 1.15; logDpH 10.0 [4, 16]: 1.15
Nc1ccccc1 [Aniline]	0.96	0.95	0.97	1.02	1.86					logDpH 7.0 ([4]; pH 7): 0.90; logDpH 8.0 ([4]; pH 8): 0.90; logDpH 9.0 [4, 15]: 0.90; logDpH 10.0 ([4]; pH 10): 0.90
c1c[nH]cn1 [Imidazole]	−0.53	−0.39	−0.34	−0.16	0.71					
CN(C)Cc1ccccc1 [N, N-Dimethylbenzylamine]	0.97	1.61	2.13	2.44	0.67					logDpH 7.0 [4, 13]: 0.17; logDpH 8.0 [4, 14]: 1.12; logDpH 9.0 [4, 15]: 1.77; logDpH 10.0 [4, 16]: 1.95
c1ccncc1 [Pyridine]										logkw-pH 7.0 ([2]; pH 7): 0.70; logkw-pH 8.0 ([2]; pH 8): 0.92; logkw-pH 9.0 ([2]; pH 9): 1.01; logkw-pH 10.0 ([2]; pH 10): 1.05

From publication PMC10005301, “Prediction of the n-Octanol/Water Partition Coefficients of Basic Compounds Using Multi-Parameter QSRR Models Based on IS-RPLC Retention Behavior in a Wide pH Range” (Molecules, 2023)
